This is an account of results in ChEMBL document CHEMBL3044848, “Antiangiogenic and growth inhibitory effects of synthetic novel 1, 5-diphenyl-1,4 pentadiene-3-one-3-yl-ethanone pyridine curcumin analogues on Ehrlich ascites tumor in vivo” (Med Chem Res, 2008).

Series [1] in a line: Antitumor activity against Mus musculus (mouse) EAT cells xenografted in Mus musculus Swiss albino (mouse)assessed as increase in life span at 100 mg/kg, ip administered on days 7,9 and 11 post tumor-injection measured on day 12 relative to control. The series is classed as functional. As to conditions: route intraperitoneal.
Another series deals with Chorioallantoic membrane. Kind of series: Antiangiogenesis activity against fertilized Gallus gallus (chicken) egg chorioallantoic membrane assessed as inhibition of neovascularization at 0.1 mM administered to 11 day old embryo measured on day 13 by microscopic analysis. The series is classed as functional, tissue-based.
The test system of series [2] is EAT. Kind of series: Antiangiogeneic activity against Mus musculus (mouse) EAT cells xenografted in Mus musculus Swiss albino (mouse) assessed as decrease in peritoneal microvessel density per high power field at 100 mg/kg, ip administered on days 7,9 and 11 measured on day 12 by H and E staining-based microscopic analysis. The series is classed as functional, organism-based. On the set-up: dose 100 mg/kg.

Series [3] concerns EAT. Description: Antitumor activity against EAT cells xenografted in Mus musculus (mouse) assessed as condensed nuclei at 100 mg/kg, ip administered on days 7,9 and 11 post tumor-injection measured on day 12 by acridine orange:ethidium bromide staining. On the set-up: dose 100 mg/kg. The series is classed as functional, organism-based.
Series [4] concerns EAT. Description: Antitumor activity against EAT cells xenografted in Mus musculus Swiss albino (mouse) assessed as apoptotic bodies at 100 mg/kg, ip administered on days 7,9 and 11 post tumor-injection measured on day 12 by Geimsa staining. The series is classed as functional, organism-based. On the set-up: dose 100 mg/kg.
Series [5] deals with EAT. Kind of series: Antitumor activity against Mus musculus (mouse) EAT cells xenografted in Mus musculus Swiss albino (mouse) assessed as decrease in cell number at 100 mg/kg, ip administered on days 7,9 and 11 post tumor-injection measured on day 12 relative to control. Type of series: functional, organism-based. On the set-up: dose 100 mg/kg.
For series [6], the system named is EAT. Kind of series: Antitumor activity against Mus musculus (mouse) EAT cells xenografted in Mus musculus Swiss albino (mouse) assessed as decrease in ascites volume at 100 mg/kg, ip administered on days 7,9 and 11 post tumor-injection measured on day 12 relative to control. Details: dose 100 mg/kg. The series is classed as functional, organism-based.
Series [7] concerns Mus musculus. Description: Toxicity against Mus musculus Swiss albino (mouse) assessed as mortality at 100 mg/kg, ip. The series is classed as organism-based. On the set-up: dose 100 mg/kg, route intraperitoneal. As to conditions: in vivo.
Series [8] relates to Mus musculus. Description: Toxicity against Mus musculus Swiss albino (mouse) assessed as weight loss at 100 mg/kg, ip. Type of series: organism-based. Details: dose 100 mg/kg, route intraperitoneal. As to conditions: in vivo.
Series [9] can be described thus: Antitumor activity against Mus musculus (mouse) EAT cells xenografted in Mus musculus Swiss albino (mouse) assessed as change in body weight at 100 mg/kg, ip administered on days 7,9 and 11 post tumor-injection measured on day 12 (reference value: 10.44 +/- 0.147). Type of series: functional. The note with it: route intraperitoneal.

The source made the active and inactive calls. The rule behind the calls is not given here.

As to `COc1cc(/C=C/C(=O)/C=C/c2ccc(OCC(=O)c3cccnc3)c(OC)c2)ccc1OCC(=O)c1cccnc1`, the Activity in [1] is reported as 88.8%; in the series on Mus musculus [7], “Non-toxic”; in the series on Mus musculus [8], “Non-toxic”; in series [9] it was -5.07 g. Moreover, the inhibition entry in the series on Chorioallantoic membrane is “Active”. Also, the result in the series with EAT [2], in the series on EAT [3], in the series on EAT [4], in the series with EAT [5] and with EAT [6] was Active.

Regarding `O=C(/C=C/c1ccc(OCC(=O)c2cccnc2)cc1)/C=C/c1ccc(OCC(=O)c2cccnc2)cc1`, the Activity is given as 66.6% in [1], “Non-toxic” in the series with Mus musculus [7], “Non-toxic” with Mus musculus [8] and -4.96 g in [9]. The inhibition entry in the series with Chorioallantoic membrane was “Active”. Besides, the outcome in the series on EAT [2], in the series on EAT [3], with EAT [4], with EAT [5] and in the series with EAT [6] was Active.
